# Experiments:
# [1] = test system: subjects with Acute Migraines; assay: Pooled liver function test profile, Study 301 and Study 302; type: in vivo, human
# Description: (§1) In a double-blind, randomized, placebo-controlled, multicenter study (Study 301, NCT03235479) adults≥18 years of age with at least a 1-year history of ICHD 3-beta migraine were eligible to participate. Following a 3- to 28-day screening period, subjects were randomized to receive rimegepant 75 mg or matching placebo and instructed to treat a single migraine attack with 1 dose of the blinded study drug (rimegepant or placebo) when headache pain reached moderate or severe intensity. The coprimary endpoints were pain freedom at 2 hours postdose and freedom from the most bothersome symptom (MBS) at 2 hours postdose. Safety assessments included adverse events (AEs), ECGs, vital signs, physical measurements, and routine laboratory tests, including assessment of liver function. Unless stated otherwise, values presented are mean±SD.
# as §1, with “302, NCT03237845)” for “301, NCT03235479)”
# patients with migraine = assay: Study 201 (BHV3000-201, NCT03266588): open label long-term safety study, rimegepant 75 mg oral tablet; type: in vivo, human
# Description: Clinical Trial-BHV3000-201: Open Label Safety Study in Acute Treatment of Migraine (ClinicalTrials.gov A phase 2⁄3 clinical study is conducted with about 2000 participants, as follows. The purpose of this study is to evaluate safety and tolerability of BHV3000 (rimegepant). Study Design • Study Type: Interventional (Clinical Trial) • Estimated Enrollment: 2000 participants • Intervention Model: Single Group Assignment • Masking: None (Open Label) • Primary Purpose: Treatment • Official Title: A Multicenter, Open Label Long-Term Safety Study of BHV3000 in the Acute Treatment of Migraine • Actual Study Start Date: Aug. 30, 2017 • Estimated Primary Completion Date: July 2019 • Estimated Study Completion Date: July 2019 Arms and Interventions Outcome Measures Primary Outcome Measures: 1. To assess the safety and tolerability of rimegepant (BHV-3000) by measuring the frequency and severity of adverse events and discontinuations due to adverse events [Time Frame: 52 weeks] Number of subjects with treatment-emergent adverse events as assessed through laboratory tests, ECGs, physical exam findings (safety and tolerability) Secondary Outcome Measures: 1. ALT or […] with total bilirubin>2×ULN [Time Frame: 52 weeks] elevated liver function tests 2. hepatic related adverse events and hepatic related adverse events that lead to discontinuation [Time Frame: 52 weeks] adverse events related to liver Results from the clinical trial described in Example 10 are summarized as follows. […] Patients were allowed to treat migraine attacks of all severities (mild to severe) up to once daily for a full year. The initial results for hepatic safety and tolerability of rimegepant 75 mg in study participants is based upon review of both adverse events and regularly scheduled liver function tests. Interim hepatic data were reviewed by an external and independent panel of liver experts. […] In the aggregate, it was noted that compared to migraine trials with drugs other than rimegepant, there was a very low incidence of overall elevations of liver function test abnormalities in rimegepant treated patients (1.0% incidence of serum ALT or […]). Subjects will continue to participate in Study 201 with additional data analyses to be submitted in the NDA and required 120-day safety updates.
# [2] = pooled Study 301 and 302, n = 1089
structure (smiles),measurement,setting,value
"N[C@@H]1c2cccnc2[C@H](OC(=O)N2CCC(n3c(=O)[nH]c4ncccc43)CC2)CC[C@H]1c1cccc(F)c1F [Rimegepant, [(5S,6S,9R)-5-amino-6-(2,3-difluorophenyl)-6,7,8,9-tetrahydro-5H-cyclohepta[b]pyridin-9-yl] 4-(2-oxo-3H-imidazo[4,5-b]pyridin-1-yl)piperidine-1-carboxylate]",Pooled Liver Function Test profile versus placebo,[1]; Study 301 and Study 302,Rimegepant was Similar to Placebo in Both Studies
same,bilirubin elevations > 2 × ULN,[1]; across both Studies 301 and 302,*No bilirubin elevations > 2 × ULN across both Studies 301 and 302
same,"ALT >3 × ULN, number of subjects",[1]; [2],1
same,"ALT >3 × ULN, percent of subjects",[1]; [2],0.1%
same,"ALT >5 × ULN, number of subjects",[1]; [2],0
same,"ALT >10 × ULN, number of subjects",[1]; [2],0
same,"ALT >20 × ULN, number of subjects",[1]; [2],0
same,"ALT >ULN, number of subjects",[1]; [2],22
same,"ALT >ULN, percent of subjects",[1]; [2],2.0%
same,"AST >3 × ULN, number of subjects",[1]; [2],1
same,"AST >3 × ULN, percent of subjects",[1]; [2],0.1%
same,"AST >5 × ULN, number of subjects",[1]; [2],0
same,"AST >10 × ULN, number of subjects",[1]; [2],0
same,"AST >20 × ULN, number of subjects",[1]; [2],0
same,"AST >ULN, number of subjects",[1]; [2],12
same,"AST >ULN, percent of subjects",[1]; [2],1.1%
same,">=20.0% decrease in migraines per month, number of subjects",patients with migraine; Enrollment Group (2-8),353
same,">=20.0% decrease in migraines per month, percent of subjects",patients with migraine; Enrollment Group (2-8),35.2%
same,">=25.0% decrease in migraines per month, number of subjects",patients with migraine; Enrollment Group (2-8),308
same,">=25.0% decrease in migraines per month, percent of subjects",patients with migraine; Enrollment Group (2-8),30.7%
same,">=30.0% decrease in migraines per month, number of subjects",patients with migraine; Enrollment Group (2-8),268
same,">=30.0% decrease in migraines per month, percent of subjects",patients with migraine; Enrollment Group (2-8),26.7%
same,">=35.0% decrease in migraines per month, number of subjects",patients with migraine; Enrollment Group (2-8),224
same,">=35.0% decrease in migraines per month, percent of subjects",patients with migraine; Enrollment Group (2-8),22.3%
same,">=40.0% decrease in migraines per month, number of subjects",patients with migraine; Enrollment Group (2-8),181
same,">=40.0% decrease in migraines per month, percent of subjects",patients with migraine; Enrollment Group (2-8),18.0%
same,">=45.0% decrease in migraines per month, number of subjects",patients with migraine; Enrollment Group (2-8),144
same,">=45.0% decrease in migraines per month, percent of subjects",patients with migraine; Enrollment Group (2-8),14.3%
same,">=50.0% decrease in migraines per month, number of subjects",patients with migraine; Enrollment Group (2-8),113
same,">=50.0% decrease in migraines per month, percent of subjects",patients with migraine; Enrollment Group (2-8),11.3%
same,">=20.0% decrease in migraines per month, number of subjects","patients with migraine; Enrollment Group (4-14), n 269",159
same,">=20.0% decrease in migraines per month, percent of subjects","patients with migraine; Enrollment Group (4-14), n 269",59.1%
same,">=25.0% decrease in migraines per month, number of subjects","patients with migraine; Enrollment Group (4-14), n 269",144
same,">=25.0% decrease in migraines per month, percent of subjects","patients with migraine; Enrollment Group (4-14), n 269",53.5%
same,">=30.0% decrease in migraines per month, number of subjects","patients with migraine; Enrollment Group (4-14), n 269",130
same,">=30.0% decrease in migraines per month, percent of subjects","patients with migraine; Enrollment Group (4-14), n 269",48.3%
same,">=35.0% decrease in migraines per month, number of subjects","patients with migraine; Enrollment Group (4-14), n 269",117
same,">=35.0% decrease in migraines per month, percent of subjects","patients with migraine; Enrollment Group (4-14), n 269",43.5%
same,">=40.0% decrease in migraines per month, number of subjects","patients with migraine; Enrollment Group (4-14), n 269",100
same,">=40.0% decrease in migraines per month, percent of subjects","patients with migraine; Enrollment Group (4-14), n 269",37.2%
same,">=45.0% decrease in migraines per month, number of subjects","patients with migraine; Enrollment Group (4-14), n 269",83
same,">=45.0% decrease in migraines per month, percent of subjects","patients with migraine; Enrollment Group (4-14), n 269",30.9%
same,">=50.0% decrease in migraines per month, number of subjects","patients with migraine; Enrollment Group (4-14), n 269",67
same,">=50.0% decrease in migraines per month, percent of subjects","patients with migraine; Enrollment Group (4-14), n 269",24.9%
same,">=20.0% decrease in migraines per month, number of subjects","patients with migraine; Enrollment Group (9-14), n 458",171
same,">=20.0% decrease in migraines per month, percent of subjects","patients with migraine; Enrollment Group (9-14), n 458",37.3%
same,">=25.0% decrease in migraines per month, number of subjects","patients with migraine; Enrollment Group (9-14), n 458",150
same,">=25.0% decrease in migraines per month, percent of subjects","patients with migraine; Enrollment Group (9-14), n 458",32.8%
same,">=30.0% decrease in migraines per month, number of subjects","patients with migraine; Enrollment Group (9-14), n 458",125
same,">=30.0% decrease in migraines per month, percent of subjects","patients with migraine; Enrollment Group (9-14), n 458",27.3%
same,">=35.0% decrease in migraines per month, number of subjects","patients with migraine; Enrollment Group (9-14), n 458",101
same,">=35.0% decrease in migraines per month, percent of subjects","patients with migraine; Enrollment Group (9-14), n 458",22.1%
same,">=40.0% decrease in migraines per month, number of subjects","patients with migraine; Enrollment Group (9-14), n 458",81
same,">=40.0% decrease in migraines per month, percent of subjects","patients with migraine; Enrollment Group (9-14), n 458",17.7%
same,">=45.0% decrease in migraines per month, number of subjects","patients with migraine; Enrollment Group (9-14), n 458",60
same,">=45.0% decrease in migraines per month, percent of subjects","patients with migraine; Enrollment Group (9-14), n 458",13.1%
same,">=50.0% decrease in migraines per month, number of subjects","patients with migraine; Enrollment Group (9-14), n 458",46
same,">=50.0% decrease in migraines per month, percent of subjects","patients with migraine; Enrollment Group (9-14), n 458",10.0%
same,">=20.0% decrease (reduction in headache days per month of at least 20%), number of subjects","patients with migraine; Overall, of 1731 subjects",683
same,">=20.0% decrease (reduction in headache days per month of at least 20%), percent of subjects","patients with migraine; Overall, of 1731 subjects",39.5%
same,">=25.0% decrease (reduction in headache days per month of at least 25%), number of subjects","patients with migraine; Overall, of 1731 subjects",602
same,">=25.0% decrease (reduction in headache days per month of at least 25%), percent of subjects","patients with migraine; Overall, of 1731 subjects",34.8%
same,">=30.0% decrease (reduction in headache days per month of at least 30%), number of subjects","patients with migraine; Overall, of 1731 subjects",523
same,">=30.0% decrease (reduction in headache days per month of at least 30%), percent of subjects","patients with migraine; Overall, of 1731 subjects",30.2%
same,">=35.0% decrease (reduction in headache days per month of at least 35%), number of subjects","patients with migraine; Overall, of 1731 subjects",442
same,">=35.0% decrease (reduction in headache days per month of at least 35%), percent of subjects","patients with migraine; Overall, of 1731 subjects",25.5%
same,">=40.0% decrease (reduction in headache days per month of at least 40%), number of subjects","patients with migraine; Overall, of 1731 subjects",362
same,">=40.0% decrease (reduction in headache days per month of at least 40%), percent of subjects","patients with migraine; Overall, of 1731 subjects",20.9%
same,">=45.0% decrease (reduction in headache days per month of at least 45%), number of subjects","patients with migraine; Overall, of 1731 subjects",287
same,">=45.0% decrease (reduction in headache days per month of at least 45%), percent of subjects","patients with migraine; Overall, of 1731 subjects",16.6%
same,">=50.0% decrease (reduction in headache days per month of at least 50%), number of subjects","patients with migraine; Overall, of 1731 subjects",226
same,">=50.0% decrease (reduction in headache days per month of at least 50%), percent of subjects","patients with migraine; Overall, of 1731 subjects",13.1%
same,"headache days per month, treatment phase versus observation phase",patients with migraine; Study 201,fewer headache days per month
same,Hy's Law cases,patients with migraine; Study 201 interim analysis,no Hy's Law cases
same,liver cases assessed as probably related to study drug,patients with migraine; Study 201 interim analysis,no liver cases
same,incidence of serum ALT or AST >3×ULN,"patients with migraine; Study 201 interim analysis, 75 mg up to once daily",1.0%
same,liver safety signal,"patients with migraine; Study 201 interim, including near-daily dosing (≥15 doses/month)",no liver safety signal detected

# From patent US11083724B2, “Rimegepant for CGRP related disorders” (Biohaven Pharmaceutical Holding Company Ltd., priority 2018, dated 2021)
